Reference: patent publication US20090209536A1, “AMINOQUINAZOLINE CANNABINOID RECEPTOR MODULATORS FOR TREATMENT OF DISEASE” (KALYPSYS, INC., priority 2007, published 2009)

Assays:
[1] = target: T1, human cannabinoid receptor type 1 (Homo sapiens, UniProt P21554); assay: Human CB1 Radioligand Binding Assay (basis of selectivity, CB2 vs. CB1); settings: CB1: HEK 293 EBNA cells expressing human CB1; CB2: CHO CB2 membranes
T1 construct: purchased Perkin Elmer RBHCB1M; host or cells: HEK 293 EBNA cells
Protocol: 2. Human CB1 Radioligand Binding Assay
The incubation buffer was composed of 50 mM Tris-HCl pH 7.4, 2.5 mM EDTA, 5 mM MgCl2, 5.0 mg/ml fatty acid free BSA and the wash buffer was composed of 50 mM Tris-HCl pH 7.4, 2.5 mM EDTA, 5 mM MgCl2, 0.5 mg/ml fatty acid free BSA.

[2] = target: T2, human cannabinoid receptor type 2 (Homo sapiens, UniProt P34972); assay: Human CB2 Radioligand Binding Assay; settings: competition with [3H] CP-55,940; membranes from stably transfected CHO CB2 cells; read-out: CB2 Ligand Binding Asssay EC50
T2 construct: expressed in transfected cells; membrane preparation
How it was run: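 Filtration competition binding on membranes from CHO cells stably expressing human CB2, with [3H]CP-55,940 at its lot-specific Kd, in 50 mM Tris-HCl pH 7.4, EGTA, MgCl2, 5 mg/ml BSA, 1% DMSO; 90 min at 30° C. Compounds at 10 uM single point or dose-response; bound radioactivity by scintillation, 100 nM CP-55,940 as 100% efficacy.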

T1 sequence (P21554 whole entry): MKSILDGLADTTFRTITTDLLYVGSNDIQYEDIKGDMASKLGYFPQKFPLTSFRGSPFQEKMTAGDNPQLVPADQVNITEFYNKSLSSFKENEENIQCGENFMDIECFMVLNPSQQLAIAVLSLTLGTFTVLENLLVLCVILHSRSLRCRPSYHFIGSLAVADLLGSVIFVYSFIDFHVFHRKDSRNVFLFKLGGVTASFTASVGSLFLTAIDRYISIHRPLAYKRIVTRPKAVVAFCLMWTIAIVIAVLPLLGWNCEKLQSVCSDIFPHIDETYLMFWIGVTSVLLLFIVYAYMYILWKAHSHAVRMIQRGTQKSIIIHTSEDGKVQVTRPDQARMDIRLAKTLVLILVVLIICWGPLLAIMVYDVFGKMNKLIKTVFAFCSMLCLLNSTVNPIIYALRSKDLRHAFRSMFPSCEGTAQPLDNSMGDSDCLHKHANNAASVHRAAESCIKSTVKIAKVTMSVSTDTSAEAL
T2 sequence (P34972 whole entry): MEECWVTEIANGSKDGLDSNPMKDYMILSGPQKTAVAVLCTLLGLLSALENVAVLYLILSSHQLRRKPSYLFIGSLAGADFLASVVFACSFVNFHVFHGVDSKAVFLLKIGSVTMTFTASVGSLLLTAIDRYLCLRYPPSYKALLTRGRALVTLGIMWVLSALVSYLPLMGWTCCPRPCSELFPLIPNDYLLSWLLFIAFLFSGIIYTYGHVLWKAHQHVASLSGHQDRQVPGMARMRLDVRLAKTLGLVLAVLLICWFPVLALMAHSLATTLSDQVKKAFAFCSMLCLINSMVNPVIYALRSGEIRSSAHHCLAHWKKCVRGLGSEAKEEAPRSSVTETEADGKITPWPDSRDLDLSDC

| SMILES | Selectivity, CB2 vs. CB1 [1] | EC50 [2] [nM] |
| --- | --- | --- |
| COc1cccc2nc(-c3ccccc3Cl)nc(N3CCCC3)c12 [Example 245, 2-(2-Chlorophenyl)-5-methoxy-4-(pyrrolidin-1-yl)quinazoline] | + (+ indicates > 10−fold) | < 1000 |
| CC(C)(C)c1ccc(Nc2nc(-c3ccccc3Cl)nc3ccccc23)cc1 [Example 69, (4-tert-Butylphenyl)-[2-(2-chlorophenyl)quinazolin-4-yl]amine] | − (− indicates ≦ 10−fold) | > 1000 |
| CCCN1[C@H](C)CN(c2nc(-c3ccccc3Cl)nc3ccccc23)C[C@@H]1C [Example 79, 2-(2-Chlorophenyl)-4-((3S,5R)-3,5-dimethyl-4-propylpiperazin-1-yl)quinazoline] | − (− indicates ≦ 10−fold) | < 1000 |
| O=S(=O)(NCc1nc(N2CCCC2)c2ccccc2n1)c1cccc2ccccc12 [Example 1, N-((4-(Pyrrolidin-1-yl)quinazolin-2-yl)methyl)naphthalene-1-sulfonamide] | + (+ indicates > 10−fold) | < 1000 |
| Clc1ccccc1-c1nc(N2CCNCC2)c2c(Cl)cccc2n1 [Example 236, 5-Chloro-2-(2-chlorophenyl)-4-(piperazin-1-yl)quinazoline] | − (− indicates ≦ 10−fold) | > 1000 |
| COc1ccc2nc(-c3ccccc3Cl)nc(N3CCSCC3)c2c1 [Example 172, 4-(2-(2-Chlorophenyl)-6-methoxyquinazolin-4-yl)thiomorpholine] | + (+ indicates > 10−fold) | < 1000 |
| O=S(=O)(NCc1nc(NC2CCCC2)c2ccccc2n1)c1cccc2ccccc12 [Example 305, N-((4-(Cyclopentylamino)quinazolin-2-yl)methyl)naphthalene-1-sulfonamide] | − (− indicates ≦ 10−fold) | < 1000 |
| CC1CCN(c2nc(-c3ccc(Cl)cc3)nc3ccccc23)CC1 [Example 125, 2-(4-Chlorophenyl)-4-(4-methylpiperidin-1-yl)quinazoline] | − (− indicates ≦ 10−fold) | < 1000 |
| COc1cc2nc(Nc3ccc(C(C)(C)C)cc3)nc(N3CCCC3)c2cc1OC [Example 298, N-(4-tert-butylphenyl)-6,7-dimethoxy-4-(pyrrolidin-1-yl)quinazolin-2-amine] | − (− indicates ≦ 10−fold) | > 1000 |
| CC(C)(C)c1ccc2c(N3CCCC3)nc(Nc3cccc(Cl)c3)nc2c1 [Example 290, 7-tert-Butyl-N-(3-chlorophenyl)-4-(pyrrolidin-1-yl)quinazolin-2-amine] | + (+ indicates > 10−fold) | < 1000 |
| O=S(=O)(NCc1nc(N2CCCC2)c2ccccc2n1)c1ccccc1 [Example 3, N-((4-(Pyrrolidin-1-yl)quinazolin-2-yl)methyl)benzenesulfonamide] | + (+ indicates > 10−fold) | < 1000 |
| COc1ccc2nc(-c3ccc(C(C)(C)C)cc3)nc(N3CCN(C(C)=O)CC3)c2c1 [Example 249, 1-(4-(2-(4-tert-Butylphenyl)-6-methoxyquinazolin-4-yl)piperazin-1-yl)ethanone] | + (+ indicates > 10−fold) | < 1000 |
| c1ccc(NCc2nc(Nc3ccccc3)c3ccccc3n2)cc1 [Example 303, N-Phenyl-2-((phenylamino)methyl)quinazolin-4-amine] | − (− indicates ≦ 10−fold) | > 1000 |
| CN(Cc1ccccc1)c1nc(-c2ccc(Cl)cc2)nc2ccccc12 [Example 120, N-Benzyl-2-(4-chlorophenyl)-N-methylquinazolin-4-amine] | − (− indicates ≦ 10−fold) | > 1000 |
| Clc1ccc(-c2nc(N3CCCC3)c3cc(Cl)ccc3n2)cc1 [Example 209, 6-Chloro-2-(4-chlorophenyl)-4-(pyrrolidin-1-yl)quinazoline] | − (− indicates ≦ 10−fold) | > 1000 |
| Cc1ccccc1Cc1nc(N2CCCC2)c2ccccc2n1 [Example 341, 2-(2-Methylbenzyl)-4-(pyrrolidin-1-yl)quinazoline] | − (− indicates ≦ 10−fold) | < 1000 |
| c1ccc2c(N3CCCCC3)nc(C3CCCCC3)nc2c1 [Example 34, 2-Cyclohexyl-4-(piperidin-1-yl)quinazolines] | − (− indicates ≦ 10−fold) | < 1000 |
| O=C(NCc1nc(N2CCCC2)c2ccccc2n1)c1ccc(Cl)cc1 [Example 12, 4-Chloro-N-((4-(pyrrolidin-1-yl)quinazolin-2-yl)methyl)benzamide] | − (− indicates ≦ 10−fold) | > 1000 |
| FC(F)(F)c1ccc(-c2nc(N3CCOCC3)c3ccccc3n2)cc1 [Example 43, 4-(2-(4-(Trifluoromethyl)phenyl)quinazolin-4-yl)morpholine] | + (+ indicates > 10−fold) | < 1000 |
| CN(Cc1ccccc1)c1nc(-c2ccc(C(C)(C)C)cc2)nc2ccccc12 [Example 113, N-Benzyl-2-(4-tert-butylphenyl)-N-methylquinazolin-4-amine] | − (− indicates ≦ 10−fold) | > 1000 |
| CN(CC1CCCCC1)c1nc(-c2ccccc2Cl)nc2ccccc12 [Example 194, 2-(2-Chlorophenyl)-N-(cyclohexylmethyl)-N-methylquinazolin-4-amine] | − (− indicates ≦ 10−fold) | < 1000 |
| Fc1ccc(-c2nc(N3CCCCC3)c3ccccc3n2)c(F)c1 [Example 23, 2-(2,4-Difluorophenyl)-4-(piperidin-1-yl)quinazoline] | − (− indicates ≦ 10−fold) | > 1000 |

The next lines start with the values.

| Selectivity, CB2 vs. CB1 [1] | EC50 [2] [nM] | SMILES |
| --- | --- | --- |
| − (− indicates ≦ 10−fold) | > 1000 | CCOC(=O)N1CCN(c2nc(-c3ccc(Cl)cc3Cl)nc3ccccc23)CC1 [Example 203, Ethyl 4-(2-(2,4-dichlorophenyl)quinazolin-4-yl)piperazine-1-carboxylate] |
| − (− indicates ≦ 10−fold) | > 1000 | CN1CCN(c2nc(-c3ccccc3Cl)nc3ccccc23)CC1=O [Example 76, 4-(2-(2-Chlorophenyl)quinazolin-4-yl)-1-methylpiperazin-2-one] |
| + (+ indicates > 10−fold) | < 1000 | Cc1ccccc1-c1nc(N2CCN(C)CC2)c2ccccc2n1 [Example 157, 4-(4-Methylpiperazin-1-yl)-2-o-tolylquinazoline] |
| − (− indicates ≦ 10−fold) | < 1000 | CN1CCCN(c2nc(-c3ccccc3Cl)nc3ccccc23)CC1 [Example 333, 2-(2-Chlorophenyl)-4-(4-methyl-1,4-diazepan-1-yl)quinazoline] |
| − (− indicates ≦ 10−fold) | > 1000 | CCOC(=O)N1CCN(c2nc(-c3ccccc3Cl)nc3cc(C(=O)NC)ccc23)CC1 [Example 321, Ethyl 4-(2-(2-chlorophenyl)-7-(methylcarbamoyl)quinazolin-4-yl)piperazine-1-carboxylate] |
| + (+ indicates > 10−fold) | < 1000 | CCOC(=O)N1CCN(c2nc(-c3ccccc3F)nc3ccccc23)CC1 [Example 279, Ethyl 4-(2-(2-fluorophenyl)quinazolin-4-yl)piperazine-1-carboxylate] |
| − (− indicates ≦ 10−fold) | > 1000 | CCOC(=O)N1CCN(c2nc(-c3ccc(Cl)cc3)nc3ccccc23)CC1 [Example 200, Ethyl 4-(2-(4-chlorophenyl)quinazolin-4-yl)piperazine-1-carboxylate] |
| − (− indicates ≦ 10−fold) | < 1000 | CC1CCN(c2nc(-c3ccccc3Cl)nc3ccccc23)CC1 [Example 58, 2-(2-Chlorophenyl)-4-(4-methylpiperidin-1-yl)quinazoline] |
| + (+ indicates > 10−fold) | < 1000 | COC(=O)N1CCN(c2nc(-c3ccccc3Cl)nc3ccccc23)CC1 [Example 226, Methyl 4-(2-(2-chlorophenyl)quinazolin-4-yl)piperazine-1-carboxylate] |
| − (− indicates ≦ 10−fold) | > 1000 | CCOC(=O)N1CCN(c2nc(-c3ccccc3F)nc3ccc(Cl)cc23)CC1 [Example 272, Ethyl 4-(6-chloro-2-(2-fluorophenyl)quinazolin-4-yl)piperazine-1-carboxylate] |
| + (+ indicates > 10−fold) | < 1000 | CCN(CC)C(=O)c1ccc2nc(-c3ccccc3Cl)nc(N3CCN(C(C)=O)CC3)c2c1 [Example 316, 4-(4-Acetylpiperazin-1-yl)-2-(2-chlorophenyl)-N,N-diethylquinazoline-6-carboxamide] |
| − (− indicates ≦ 10−fold) | < 1000 | O=C1CCN(c2nc(-c3ccccc3Cl)nc3ccccc23)CC1 [Example 65, 1-(2-(2-Chlorophenyl)quinazolin-4-yl)piperidin-4-one] |
| + (+ indicates > 10−fold) | < 1000 | FC(F)(F)N1CCN(c2nc(-c3ccccc3Cl)nc3ccccc23)CC1 [Example 106, 2-(2-Chlorophenyl)-4-(4-(trifluoromethyl)piperazin-1-yl)quinazoline] |
| + (+ indicates > 10−fold) | < 1000 | CCN1CCN(c2nc(-c3ccccc3Cl)nc3ccccc23)CC1 [Example 105, 2-(2-chlorophenyl)-4-(4-ethylpiperazin-1-yl)quinazoline] |
